Reference: BindingDB's records for doi:10.1021/jm00013a009 (Sandoz Pharma, 1995)

Assay: Compound was evaluated for the binding affinity at 5- HT1A receptor

SMILES: N=C(N)NN=Cc1c[nH]c2ccc(O)cc12 [(2E)-2-[(5-hydroxy-1H-indol-3-yl)methylene]hydrazinecarboximidamide]
- Ki: 63 nM
